Test in all cases: microbe, parasite or virus in culture
Holding throughout (type): cell-based, Hepatitis C virus (HCV)

Assay [1] relates to HCV replicon 1AY93H. Particulars: Replicon Assay A. The method in brief: (§1)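 Three-day treatment of replicon cells (2000/well, 5% FBS, 0.5% DMSO), followed by TaqMan RT-PCR of replicon RNA with cyclophilin as internal control.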
Assay [2] relates to HCV replicon 2B. Particulars: Replicon Assay A. The method in brief:
as §1

The test system of assay [3] is HCV replicon 1AQ30D. The conditions noted are these: Replicon Assay B. The procedure: (§2) In an alternate assay (“Replicon Assay B”), 1000 cells were seeded per well in a 384-well collagen coated black plate from Greiner bio-one (Cat #781946) in 5% FBS. Inhibitors of this invention were added at 24 h post-seeding, and the plates were incubated for 3 days. Cells were subsequently lysed with Qiagen lysis buffer (Cat #1062731) to extract the RNA. HCV replicon RNA level was measured by real-time PCR using the RNA-to-CT kit from Applied Biosystem (Cat #4392656) and genotype-specific primers and probes. The amplicon was located within NS5B. […] (SEQ. ID NO. 2); the probe sequence was FAM-labeled […] (SEQ. ID NO. 3).
(§3) The real-time RT-PCR reactions were run on ABI PRISM 7900HT or Viia7 Sequence Detection System using the following program: 48° C. for 30 minutes, 95° C. for 10 minutes, 40 cycles of 95° C. for 15 sec, 60° C. for 1 minutes.
(§4) Data for replicons 1A, 1AY93H and 2B were obtained using Replicon Assay A and data for replicons 1AQ30D and 1B were obtained using Replicon Assay B.

The test system of assay [4] is HCV replicon 1B. Particulars: Replicon Assay B. The procedure: as §2, §3, §4
Assay [5] concerns HCV replicon 1A. The conditions noted are these: Replicon Assay A. Put shortly:
as §1

Setting [6] is: read-out: 1A Y93H IC50, replicon 1AY93H.
[7] abbreviates: Hepatitis C virus, read-out: 1A Q30D IC50 (nM), replicon 1AQ30D.
Where [8] appears, read: Hepatitis C virus, read-out: 2B IC50 (nM), replicon 2B.
Setting [9] is: Hepatitis C virus, read-out: 1A Y93H IC50 (nM), replicon 1AY93H.
[10] abbreviates: read-out: 1A Y93H IC50, HCV replicon 1A Y93H.
[11] abbreviates: read-out: 2B IC50, HCV replicon 2B.
Setting [12] is: Hepatitis C virus, HCV replicon 1B.
The mark [13] stands for this setting: HCV replicon 2B, read-out: 2B IC50.

Like-named read-outs stand apart in the source and are kept apart here.

For `COC(=O)N[C@H](C(=O)N1CCC[C@H]1c1ncc(-c2cc(F)c3c(c2)OC(c2ccc(C(C)C)s2)n2c-3cc3cc(-c4cnc([C@@H]5CCCN5C(=O)[C@@H](NC(=O)OC)C5CCOCC5)[nH]4)ccc32)[nH]1)C(C)C` (single isomer, unassigned) [Compound 345], the IC50 in assay [1] (setting [6]) came to 0.0012 nM; in assay [2] (read-out: 2B IC50, replicon 2B), 0.0072 nM; in assay [3] (setting [7]), 0.0235 nM.
For the molecule `COC(=O)N[C@H](C(=O)N1CCC[C@H]1c1ncc(-c2cc(F)c3c(c2)OC(c2csc(C4CC4)c2)n2c-3cc3cc(-c4cnc([C@@H]5CCCN5C(=O)[C@@H](NC(=O)OC)C(C)C)[nH]4)ccc32)[nH]1)C(C)C` (single isomer, unassigned) [Compound 322], the results for the IC50 in assay [1] (setting [6]), in assay [2] (setting [8]) and in assay [3] (setting [7]) were 0.0297 nM, 0.29 nM and 0.82 nM, respectively.
Take `COC(=O)N[C@H](C(=O)N1CCC[C@H]1c1ncc(-c2cc(F)c3c(c2)OC(c2ccc(OC)s2)n2c-3cc3cc(-c4cnc([C@@H]5CCCN5C(=O)[C@@H](NC(=O)OC)C(C)C)[nH]4)ccc32)[nH]1)C(C)C` (single isomer, unassigned) [Compound 20]: the IC50 in assay [1] (setting [6]) worked out at 0.014 nM; in assay [2] (read-out: 2B IC50, replicon 2B), 0.051 nM; in assay [3] (setting [7]), 0.38 nM; in assay [4] (Hepatitis C virus, replicon 1B), 0.0011 nM.
Regarding `COCC(C)(C)c1ccc(C2Oc3cc(-c4cnc([C@@H]5CCCN5C(=O)[C@@H](NC(=O)OC)C(C)C)[nH]4)cc(F)c3-c3cc4cc(-c5cnc([C@@H]6CCCN6C(=O)[C@@H](NC(=O)OC)C(C)C)[nH]5)ccc4n32)s1` (single isomer, unassigned) [Compound 399], the IC50 in assay [1] (setting [6]) turned out to be 0.0145 nM; in assay [5] (Hepatitis C virus, replicon 1A), 0.0027 nM; in assay [2] (read-out: 2B IC50, replicon 2B), 0.274 nM; in assay [3] (setting [7]), 0.292 nM.
With `CCCc1ccc(C2Oc3cc(-c4cnc([C@@H]5CCCN5C(=O)[C@@H](NC(=O)OC)C(C)C)[nH]4)cc(F)c3-c3cc4cc(-c5cnc([C@@H]6CCCN6C(=O)[C@@H](NC(=O)OC)C(C)C)[nH]5)ccc4n32)s1` (stereo partly shown) [Compound 34], the IC50 in assay [1] (setting [9]) was 0.005 nM; in assay [5] (Hepatitis C virus, replicon 1A) it was 0.0028 nM; in assay [2] (setting [8]) it was 0.1 nM; in assay [3] (setting [7]) it was 0.16 nM.
As to `COC(=O)NC(C(=O)N1CCC[C@H]1c1ncc(-c2ccc3c(c2)cc2n3C(c3ccc(C4CC4)s3)Oc3cc(-c4cnc([C@@H]5CCCN5C(=O)[C@@H](NC(=O)OC)C(C)C)[nH]4)cc(F)c3-2)[nH]1)C1CC(C)(C)OC(C)(C)C1` (single isomer, unassigned) [Compound 421], the 50% inhibitory concentration (IC50) in assay [1] (setting [10]) is 0.0127 nM; in assay [5] (HCV replicon 1A), 0.0023 nM; in assay [2] (setting [11]), 0.0184 nM; in assay [3] (Hepatitis C virus, read-out: 1A Q30D IC50, HCV replicon 1A Q30D), 0.126 nM.
On to `COC(=O)N[C@H](C(=O)N1C2CC2C[C@H]1c1ncc(-c2cc(F)c3c(c2)OC(c2ccc(C4CC4)s2)n2c-3cc3cc(-c4cnc([C@@H]5CCCN5C(=O)[C@@H](NC(=O)OC)C5C[C@@H](C)O[C@@H](C)C5)[nH]4)ccc32)[nH]1)C(C)C` (single isomer, unassigned) [Compound 558], for which the half-maximal inhibitory concentration (IC50) in assay [1] (setting [10]) was 0.362 nM; in assay [5] (HCV replicon 1A), 0.0535 nM; in assay [2] (setting [11]), 1.22 nM; in assay [4] (HCV replicon 1B) it was 0.0358 nM.
Regarding `COC(=O)N[C@H](C(=O)N1C[C@H](F)C[C@H]1c1cnc(-c2ccc3c(c2)cc2n3C(c3cc4ccccc4s3)Oc3cc(-c4cnc([C@@H]5C[C@@H](F)CN5C(=O)[C@@H](NC(=O)OC)C(C)C)[nH]4)ccc3-2)[nH]1)C(C)C` (single isomer, unassigned) [Compound 805], the IC50 in assay [1] (setting [10]) turned out to be 0.01 nM; in assay [5] (HCV replicon 1A), 0.01 nM; in assay [2] (Hepatitis C virus, read-out: 2B IC50, HCV replicon 2B), 21.5 nM; in assay [4] (setting [12]), 0.005 nM.
As for `CCc1ccc(C2Oc3cc(-c4c[nH]c([C@@H]5CCCN5C(=O)[C@@H](NC(=O)OC)C(C)C)n4)ccc3-c3cc4c(F)c(-c5c[nH]c([C@@H]6CCCN6C(=O)C(NC(=O)OC)C6C[C@@H](C)O[C@@H](C)C6)n5)ccc4n32)s1` (single isomer, unassigned) [Compound 361], the IC50 came to 0.138 nM in assay [1] (setting [6]); 0.0036 nM in assay [5] (replicon 1A); 0.0389 nM in assay [2] (read-out: 2B IC50, replicon 2B); 0.0035 nM in assay [4] (Hepatitis C virus, replicon 1B).
In the case of `COC(=O)NC(C(=O)N1CCC[C@H]1c1ncc(-c2ccc3c(c2)cc2n3C(c3ccc(C4CC4)s3)Oc3cc(-c4cnc([C@@H]5CCCN5C(=O)[C@@H](NC(=O)OC)C(C)C)[nH]4)cc(F)c3-2)[nH]1)C(C)(C)F` (single isomer, unassigned) [Compound 77], the IC50 was 0.24 nM in assay [1] (setting [6]); 0.0018 nM in assay [5] (replicon 1A); 0.41 nM in assay [2] (read-out: 2B IC50, replicon 2B); 0.0029 nM in assay [4] (replicon 1B).
With `COC(=O)NC(C(=O)N1CCC[C@H]1c1ncc(-c2ccc3c(c2)cc2n3C(c3cc4c(s3)CCC4)Oc3cc(-c4cnc([C@@H]5CCCN5C(=O)[C@@H](NC(=O)OC)C(C)C)[nH]4)cc(C)c3-2)[nH]1)C1CCOC(C)(C)C1` (single isomer, unassigned) [Compound 852], the 50% inhibitory concentration (IC50) in assay [1] (setting [10]) was 1.32 nM; in assay [5] (Hepatitis C virus, HCV replicon 1A), above 0.003 nM; in assay [2] (setting [11]), 0.058 nM; in assay [4] (setting [12]), 0.0025 nM.
Turning to `COC(=O)NC(C(=O)N1CCC[C@H]1c1ncc(-c2ccc3c(c2)cc2n3C(c3cc(C)c(C)s3)Oc3cc(-c4cnc([C@@H]5CCCN5C(=O)[C@@H](NC(=O)OC)C5CCOCC5)[nH]4)cc(F)c3-2)[nH]1)C(C)(C)F` (single isomer, unassigned) [Compound 130], the IC50 worked out at 0.24 nM in assay [1] (setting [6]); 0.0017 nM in assay [5] (replicon 1A); 0.24 nM in assay [2] (read-out: 2B IC50, replicon 2B); 0.0036 nM in assay [4] (Hepatitis C virus, replicon 1B).
As for `COC(=O)N[C@H](C(=O)N1CCC[C@H]1c1ncc(-c2cc(F)c3c(c2)OC(c2ccc(C4CC4)s2)n2c-3cc3cc(-c4cnc([C@@H]5CCCN5C(=O)[C@@H](NC(=O)OC)C(C)C)[nH]4)ccc32)[nH]1)C(C)C` (single isomer, unassigned) [Compound 5], the 50% inhibitory concentration (IC50) in assay [1] (setting [9]) was 0.95 nM; in assay [5] (Hepatitis C virus, replicon 1A), 0.0046 nM; in assay [2] (setting [8]), 2.08 nM; in assay [3] (setting [7]) it was 28.3 nM.
For `COC(=O)NC(C(=O)N1CCC[C@H]1c1ncc(-c2cc(F)c3c(c2)OC(c2ccc(C4CC4)s2)n2c-3cc3cc(-c4cnc([C@@H]5CCCN5C(=O)[C@@H](NC(=O)OC)C5CCOCC5)[nH]4)ccc32)[nH]1)C(C)(C)F` (single isomer, unassigned) [Compound 169], the IC50 is 0.045 nM in assay [1] (setting [6]); 0.0012 nM in assay [5] (replicon 1A); 0.075 nM in assay [2] (read-out: 2B IC50, replicon 2B); 0.0034 nM in assay [4] (Hepatitis C virus, replicon 1B).
In the case of `COC(=O)NC(C(=O)N1CCCC1c1ncc(-c2cc(F)c3c(c2)OC(c2ccc(C4CC4)s2)n2c-3cc3cc(-c4cnc(C5CCCN5C(=O)C(NC(=O)OC)C5CCOC(C)C5)[nH]4)ccc32)[nH]1)C(C)C` (mixture of isomers) [Compound 849], the concentration for half-maximal inhibition (IC50) in assay [5] (HCV replicon 1A) is 0.0023 nM; in assay [2] (setting [13]), 0.005 nM; in assay [3] (HCV replicon 1A Q30D, read-out: 1A Q30D IC50), 0.029 nM; in assay [4] (HCV replicon 1B), 0.0029 nM.
For `COC(=O)NC(C(=O)N1CCC[C@H]1c1ncc(-c2ccc3c(c2)cc2n3C(c3ccc(CC4CC4)s3)Oc3cc(-c4cnc([C@@H]5CCCN5C(=O)[C@@H](NC(=O)OC)C(C)C)[nH]4)cc(F)c3-2)[nH]1)C1CCOC(C)(C)C1` (single isomer, unassigned) [Compound 409], the IC50 was 0.746 nM in assay [1] (setting [10]), 0.0017 nM in assay [5] (HCV replicon 1A), 0.181 nM in assay [2] (setting [11]) and 0.0025 nM in assay [4] (HCV replicon 1B).
`COC(=O)N[C@H](C(=O)N1CCC[C@H]1c1ncc(-c2cc(F)c3c(c2)OC(c2ccc(C4CC4)s2)n2c-3c(C)c3cc(-c4cnc([C@@H]5CCCN5C(=O)[C@@H](NC(=O)OC)C(C)C)[nH]4)ccc32)[nH]1)C(C)C` (single isomer, unassigned) [Compound 841]: the IC50 in assay [1] (HCV replicon 1A Y93H, read-out: 1A Y93H IC50) came out at 0.849 nM; in assay [5] (HCV replicon 1A), 0.0026 nM; in assay [2] (setting [13]), 0.523 nM; in assay [4] (HCV replicon 1B), 0.0017 nM.
As for `CCOC(C)[C@H](NC(=O)OC)C(=O)N1CCC[C@H]1c1ncc(-c2cc(F)c3c(c2)OC(c2cc(C)c(C)s2)n2c-3cc3cc(-c4cnc([C@@H]5CCCN5C(=O)[C@@H](NC(=O)OC)C(C)C)[nH]4)ccc32)[nH]1` (single isomer, unassigned) [Compound 79], the 50% inhibitory concentration (IC50) in assay [1] (setting [6]) was 0.14 nM; in assay [5] (Hepatitis C virus, replicon 1A) it was 0.0021 nM; in assay [2] (read-out: 2B IC50, replicon 2B) it was 0.32 nM; in assay [4] (Hepatitis C virus, replicon 1B) it was 0.0034 nM.

The record behind these values is patent US20160257697A1, “THIOPHENE-SUBSTITUTED TETRACYCLIC COMPOUNDS AND METHODS OFUSE THEREOF FOR THE TREATMENT OF VIRAL DISEASES” (priority 2013, published 2016).
